Experimental data: DBAASP
≈ marks a conversion by molar mass, not a printed value.

Assays:
Experiment in all cases: ≥ marks a high value that may be exact or a test limit, other limits are often not marked, values filed in µg/mL are converted to µM
Bacillus subtilis 168 = test system: Bacillus subtilis 168
[1] = test system: Candida albicans ATCC 10231
[2] = test system: Candida glabrata ATCC 2001
[3] = test system: Candida tropicalis ATCC 13803
[4] = test system: Escherichia coli ATCC 25922
[5] = test system: Klebsiella pneumoniae ATCC 13883
[6] = test system: Pseudomonas aeruginosa PAO1
[7] = test system: Staphylococcus aureus MU50
[8] = test system: Staphylococcus aureus Newman
[9] = test system: Staphylococcus aureus UAMS-1
[10] = test system: Staphylococcus aureus USA 200
[11] = test system: Staphylococcus aureus USA 400
[12] = test system: Staphylococcus epidermidis 1457
Escherichia coli BW25113 = test system: Escherichia coli BW25113
Escherichia coli J2210 = test system: Escherichia coli J2210
Escherichia coli JJ2489 = test system: Escherichia coli JJ2489
Escherichia coli JW0013 = test system: Escherichia coli JW0013
[13] = test system: Escherichia coli JW0368 ΔsbmA
[14] = test system: Escherichia coli JW2778 ΔygdD
Escherichia coli MC1041 = test system: Escherichia coli MC1041
[15] = test system: Salmonella enterica subsp. enterica serovar Enteritidis MH91989
[16] = test system: Salmonella typhimurium SL1344
Bacillus subtilis = test system: Bacillus subtilis
Enterococcus faecalis = test system: Enterococcus faecalis
Escherichia coli O111:B4 = test system: Escherichia coli O111:B4
[17] = test system: Pseudomonas aeruginosa H103
[18] = test system: Salmonella typhimurium C610
[19] = test system: Staphylococcus aureus K147
[20] = test system: Staphylococcus aureus SAP 0017
[21] = test system: Staphylococcus epidermidis
[22] = test system: Bacillus amyloliquefaciens ATCC 23842
[23] = test system: Bacillus cereus ATCC 14579
[24] = test system: Bacillus licheniformis ATCC 14580
[25] = test system: Bacillus subtilis ATCC 6051
[26] = test system: Enterococcus faecalis 1F-1
[27] = test system: Enterococcus faecium 5F-10
[28] = test system: Proteus mirabilis ATCC 35659
[29] = test system: Salmonella enterica ATCC H9812
[30] = test system: Staphylococcus aureus ATCC 29213
[31] = test system: Escherichia coli CVCC 1515
Escherichia coli K88 = test system: Escherichia coli K88
Escherichia coli UB1005 = test system: Escherichia coli UB1005
[32] = test system: Pseudomonas aeruginosa ATCC 27853
[33] = test system: Salmonella enterica subsp. enterica serovar Typhimurium ATCC 14028
[34] = test system: Staphylococcus epidermidis ATCC 12228
[35] = test system: Candida albicans ATCC 90029
Candida albicans = test system: Candida albicans
Escherichia coli = test system: Escherichia coli
Pseudomonas aeruginosa = test system: Pseudomonas aeruginosa
Staphylococcus aureus = test system: Staphylococcus aureus

With CC[C@H](C)[C@H](NC(=O)[C@H](CCCCN)NC(=O)CNC(=O)[C@H](CC(C)C)NC(=O)[C@@H](NC(=O)[C@H](CO)NC(=O)[C@H](CCCCN)NC(=O)[C@H](CC(C)C)NC(=O)[C@H](Cc1ccccc1)NC(=O)[C@@H]1CCCN1C(=O)[C@H](CC(C)C)NC(=O)[C@@H](N)Cc1ccccc1)[C@@H](C)CC)C(=O)N[C@@H](CC(C)C)C(N)=O [FLPFLKSILGKIL] the MIC (Bacillus subtilis 168) was 17.7 µM (≈ 26.3 µg/mL), the MIC [1] was 12.5 µM (≈ 18.6 µg/mL) and the MIC [2] was 12.5 µM (≈ 18.6 µg/mL). For the same compound, the MIC [3] was 1.6 µM (≈ 2.38 µg/mL), the MIC [4] was > 50 µM and the MIC [5] was ≥ 50 µM. The MIC [6] was > 50 µM, the MIC [7] was 3.1 µM (≈ 4.61 µg/mL) and the MIC [8] was 1.6 µM (≈ 2.38 µg/mL). The MIC [9] was 25 µM (≈ 37.2 µg/mL), the MIC [10] was 3.1 µM (≈ 4.61 µg/mL) and the MIC [11] was 1.56 µM (≈ 2.32 µg/mL). For the same compound, the MIC [12] was 1.6 µM (≈ 2.38 µg/mL).

Compound CC(C)C[C@H](NC(=O)[C@H](CCCN=C(N)N)NC(=O)[C@@H]1CCCN1C(=O)[C@H](CCCN=C(N)N)NC(=O)[C@@H]1CCCN1C(=O)[C@@H]1CCCN1C(=O)[C@H](CCCN=C(N)N)NC(=O)[C@@H]1CCCN1C(=O)[C@H](CCC(N)=O)NC(=O)[C@@H]1CCCN1C(=O)[C@H](CCCN=C(N)N)NC(=O)[C@H](Cc1ccc(O)cc1)NC(=O)[C@@H](NC(=O)[C@@H]1CCCN1C(=O)[C@H](CCCN=C(N)N)NC(=O)[C@H](CC(N)=O)NC(=O)[C@H](CC(N)=O)NC(=O)CN)C(C)C)C(=O)O [GNNRPVYRPQPRPPRPRL] has an MIC (Escherichia coli BW25113) of 0.062 µM (≈ 0.135 µg/mL), an MIC (Escherichia coli J2210) of 0.126 µM (≈ 0.273 µg/mL) and an MIC (Escherichia coli JJ2489) of 0.126 µM (≈ 0.273 µg/mL). It also gave an MIC (Escherichia coli JW0013) of 0.048 µM (≈ 0.104 µg/mL), an MIC [13] of 0.096 µM (≈ 0.208 µg/mL) and an MIC [14] of 0.126 µM (≈ 0.273 µg/mL). For the same compound, the MIC (Escherichia coli MC1041) was 0.096 µM (≈ 0.208 µg/mL), the MIC [15] was 0.067 µM (≈ 0.145 µg/mL) and the MIC [16] was 0.126 µM (≈ 0.273 µg/mL).

With CC(C)C[C@H](NC(=O)[C@H](CCCCN)NC(=O)[C@H](CCCCN)NC(=O)[C@H](Cc1ccccc1)NC(=O)[C@H](Cc1ccccc1)NC(=O)[C@H](CO)NC(=O)[C@H](CCCCN)NC(=O)[C@@H](N)CCCCN)C(=O)N[C@H](C(=O)N[C@@H](CO)C(=O)N[C@H](C(=O)N[C@@H](C)C(=O)N[C@@H](CO)C(=O)N[C@@H](CO)C(=O)N[C@H](C(=O)N[C@@H](CC(C)C)C(=O)N[C@@H](CO)C(=O)O)C(C)C)C(C)C)[C@@H](C)O [KKSFFKKLTSVASSVLS] the MIC (Bacillus subtilis) was ≥ 68.9 µM, the MIC (Enterococcus faecalis) was ≥ 68.9 µM and the MIC (Escherichia coli O111:B4) was ≥ 68.9 µM. For the same compound, the MIC [17] was ≥ 68.9 µM, the MIC [18] was ≥ 68.9 µM and the MIC [19] was ≥ 68.9 µM. For the same compound, the MIC [20] was ≥ 68.9 µM and the MIC [21] was ≥ 68.9 µM.

CC(C)C[C@H](NC(=O)[C@@H](N)CC(C)C)C(=O)N[C@@H](CO)C(=O)N[C@@H](CCCN=C(N)N)C(=O)N[C@H](C(=O)N[C@@H](CC(=O)O)C(=O)N[C@@H](CCC(=O)O)C(=O)O)C(C)C [LLSRVDE] was tested, and the MIC [22] was ≥ 154 µM, the MIC [23] was ≥ 154 µM and the MIC [24] was ≥ 154 µM. For the same compound, the MIC [25] was ≥ 154 µM, the MIC [26] was ≥ 154 µM and the MIC [27] was ≥ 154 µM. The MIC [4] was > 154 µM, the MIC [28] was ≥ 154 µM and the MIC [6] was > 154 µM. For the same compound, the MIC [29] was ≥ 154 µM and the MIC [30] was > 154 µM.

For CC(C)C[C@H](NC(=O)[C@H](CC(C)C)NC(=O)[C@H](CCCCN)NC(=O)[C@H](C)NC(=O)[C@H](C)NC(=O)[C@H](C)NC(=O)[C@H](CCCCN)NC(=O)[C@H](C)NC(=O)[C@H](C)NC(=O)[C@H](C)NC(=O)[C@H](CCCCN)NC(=O)[C@H](Cc1c[nH]c2ccccc12)NC(=O)[C@@H](N)CC(C)C)C(N)=O [LWKAAAKAAAKLL], the MIC [4] was 1 µM (≈ 1.35 µg/mL), the MIC [31] was 8 µM (≈ 10.8 µg/mL) and the MIC (Escherichia coli K88) was 4 µM (≈ 5.41 µg/mL). The MIC (Escherichia coli UB1005) was 8 µM (≈ 10.8 µg/mL), the MIC [32] was 4 µM (≈ 5.41 µg/mL) and the MIC [33] was 32 µM (≈ 43.3 µg/mL). The MIC [30] was 4 µM (≈ 5.41 µg/mL) and the MIC [34] was 4 µM (≈ 5.41 µg/mL).

Work on CC(C)C[C@H](NC(=O)[C@H](Cc1cnc[nH]1)NC(=O)[C@H](CO)NC(=O)[C@H](C)NC(=O)[C@H](CC(C)C)NC(=O)[C@@H](NC(=O)[C@@H](NC(=O)[C@H](CC(C)C)NC(=O)[C@H](CC(C)C)NC(=O)[C@H](CO)NC(=O)[C@H](Cc1cnc[nH]1)NC(=O)[C@H](CO)NC(=O)[C@H](CC(C)C)NC(=O)[C@H](CC(C)C)NC(=O)[C@H](CCCCN)NC(=O)[C@H](Cc1ccccc1)NC(=O)[C@H](CCCN=C(N)N)NC(=O)[C@@H](N)CCCN=C(N)N)C(C)C)[C@@H](C)O)C(=O)O [RRFKLLSHSLLVTLASHL] yielded an MIC [35] of 5.98 µM (≈ 12.5 µg/mL), an MIC (Candida albicans) of 2.99 µM (≈ 6.25 µg/mL) and an MIC [4] of 1.49 µM (≈ 3.12 µg/mL). For the same compound, the MIC (Escherichia coli) was 1.49 µM (≈ 3.12 µg/mL), the MIC (Pseudomonas aeruginosa) was 2.99 µM (≈ 6.25 µg/mL) and the MIC [30] was 2.99 µM (≈ 6.25 µg/mL). For the same compound, the MIC (Staphylococcus aureus) was 1.49 µM (≈ 3.12 µg/mL).
